How the values were obtained:
[1] = biological target: T1, huCMKLR1 (Homo sapiens, UniProt Q99788); experiment: Inhibition of chemerin-triggered human CMKLR1/L1.2 cell migration; assay type: cell-based; set-up: expressed in transfected cells; host or cells: L1.2 cells; settings: 1 nM chemerin
T1 sequence (Q99788 1-373): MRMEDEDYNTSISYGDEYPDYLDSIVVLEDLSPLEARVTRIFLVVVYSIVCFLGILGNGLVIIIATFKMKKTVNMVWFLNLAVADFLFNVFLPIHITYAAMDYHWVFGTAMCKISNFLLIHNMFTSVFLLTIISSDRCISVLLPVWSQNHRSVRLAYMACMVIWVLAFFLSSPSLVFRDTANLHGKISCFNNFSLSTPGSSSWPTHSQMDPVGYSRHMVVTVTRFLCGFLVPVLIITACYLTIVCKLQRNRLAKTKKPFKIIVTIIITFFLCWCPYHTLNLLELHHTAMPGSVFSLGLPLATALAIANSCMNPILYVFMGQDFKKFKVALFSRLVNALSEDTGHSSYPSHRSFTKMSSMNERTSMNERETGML
Protocol: 2-(alpha-Naphthoyl)ethyltrimethyl ammonium iodide (aNETA) was tested for inhibition of chemerin-triggered human CMKLR1/L1.2 cell migration. huCMKLR1/L1.2 ctx and 1 nM chemerin were used. The assay was performed in 0.5% BSA, buffer (10% FBS), or 100% human serum.

[2] = biological target: T1, huCMKLR1; experiment: Inhibition of chemerin-triggered huCMKLR1 association with beta-arrestin2 (PathHunter CHO-K1 enzyme fragment complementation); assay type: cell-based; set-up: host or cells: CHO-K1
From the text: With reference to FIG. 1, early event in receptor internalization is ligand-triggered association with beta-arrestin2. This process turns off receptor signaling. Enzyme complementation can be used to measure CMKLR1 association with beta-arrestin2. In this assay β-Galactosidase is split into two complementary enzyme fragments, one is attached to CMKLR1, the other to beta-arrestin2. If ligand interaction with CMKLR1 promotes its association with β-arrestin2, the enzyme fragments join and become active. An assay, such as PathHunter® CHO-K1 CMKLR1 β-Arrestin GPCR Assays (DiscoverX, Inc., Fremont, Calif.) can provide a method for monitoring activation of the CMKLR1 GPCR receptor through arrestin recruitment in live cells. CMKLR1 cells are engineered to co-express a ProLink (PK)-tagged GPCR and the Enzyme Acceptor (EA)-tagged β-Arrestin fusion proteins. Upon GPCR activation, the two enzyme fragments are brought together, forming an active β-Gal enzyme through Enzyme Fragment Complementation (EFC). A LOPAC (Library of Pharmacologically Active Compounds) library (Sigma-Aldrich, St. Louis, Mo.) was screened for inhibition of chemerin-triggered […]1 association with βARR. Three hits were obtained from a primary screen of LOPAC library. […] The assay was performed in both buffer (10% FBS) or 100% human serum.

[3] = biological target: T2, CXCR4 (Homo sapiens, UniProt P61073); experiment: CXCR4-dependent MOLT-4 migration to CXCL12; assay type: cell-based; settings: MOLT4 human T-cell line; 1 nM CXCL12
T2 construct: endogenous in cells; host or cells: MOLT-4 (human T-cell line)
Protocol: MOLT4 cell ctx (human T-cell line) and 1 nM CXCL12 were used.

[4] = biological target: T3, mouse CMKLR1 (Mus musculus, UniProt P97468); experiment: Inhibition of chemerin-triggered mouse CMKLR1/L1.2 cell migration; assay type: cell-based; settings: 1 nM chemerin
T3 construct: expressed in transfected cells; host or cells: L1.2 cells
T3 sequence (P97468 1-371): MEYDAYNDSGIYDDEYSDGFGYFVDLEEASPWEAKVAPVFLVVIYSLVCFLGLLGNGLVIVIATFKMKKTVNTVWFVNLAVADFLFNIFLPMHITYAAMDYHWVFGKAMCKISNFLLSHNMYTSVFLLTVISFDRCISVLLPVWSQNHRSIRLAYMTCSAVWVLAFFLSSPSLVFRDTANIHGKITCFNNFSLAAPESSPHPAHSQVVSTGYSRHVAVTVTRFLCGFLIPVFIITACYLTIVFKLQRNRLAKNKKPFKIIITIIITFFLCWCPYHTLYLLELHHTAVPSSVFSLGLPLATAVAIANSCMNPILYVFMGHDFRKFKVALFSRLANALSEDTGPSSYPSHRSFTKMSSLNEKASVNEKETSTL
Protocol: 2-(alpha-Naphthoyl)ethyltrimethyl ammonium iodide (aNETA) was tested for inhibition of chemerin-triggered mouse CMKLR1/L1.2 cell migration. mCMKLR1/L1.2 ctx and 1 nM chemerin were used. The assay was performed in 0.5% BSA, buffer (10% FBS), or 100% human serum.

[5] = biological target: T4, CXCR4 (Mus musculus, UniProt P70658); experiment: CXCR4-dependent mouse splenocyte migration to CXCL12; assay type: cell-based; settings: 100 nM CXCL12
T4 construct: endogenous in cells; host or cells: mouse splenocytes
Protocol: Splenocyte ctx and 100 nM CXCL12 were used.

[6] = biological target: T5, C5aR (Mus musculus, UniProt P30993); experiment: C5aR-dependent mouse BM neutrophil chemotaxis to C5a; assay type: cell-based; settings: 100 nM C5a
T5 construct: endogenous in cells; host or cells: mouse bone-marrow neutrophils
T5 sequence (P30993 1-351): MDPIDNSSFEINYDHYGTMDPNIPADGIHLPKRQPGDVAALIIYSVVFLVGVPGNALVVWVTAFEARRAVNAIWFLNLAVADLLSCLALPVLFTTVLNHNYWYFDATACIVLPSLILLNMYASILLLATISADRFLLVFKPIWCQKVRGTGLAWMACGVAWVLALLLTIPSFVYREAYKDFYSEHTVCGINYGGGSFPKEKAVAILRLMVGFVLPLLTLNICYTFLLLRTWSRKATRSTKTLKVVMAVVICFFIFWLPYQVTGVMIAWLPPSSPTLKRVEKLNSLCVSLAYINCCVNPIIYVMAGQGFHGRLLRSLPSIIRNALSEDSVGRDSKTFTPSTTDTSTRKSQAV
Protocol: Neutrophil ctx and 100 nM C5a were used.

[7] = biological target: T6, CCR7 (Mus musculus, UniProt P47774); experiment: CCR7-dependent mouse splenocyte migration to CCL19; assay type: cell-based; settings: 100 nM CCL19
T6 construct: endogenous in cells; host or cells: mouse splenocytes
T6 sequence (P47774 25-378): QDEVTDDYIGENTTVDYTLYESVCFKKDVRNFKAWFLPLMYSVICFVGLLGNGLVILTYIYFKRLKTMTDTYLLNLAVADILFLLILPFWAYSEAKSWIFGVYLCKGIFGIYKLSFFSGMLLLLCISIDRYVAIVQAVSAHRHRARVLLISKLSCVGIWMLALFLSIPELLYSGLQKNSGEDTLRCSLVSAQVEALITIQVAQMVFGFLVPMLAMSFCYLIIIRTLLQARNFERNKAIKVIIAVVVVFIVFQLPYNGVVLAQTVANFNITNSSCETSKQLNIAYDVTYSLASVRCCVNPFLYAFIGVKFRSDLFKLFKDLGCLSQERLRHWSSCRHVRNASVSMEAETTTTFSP
Protocol: Splenocyte ctx and 100 nM CCL19 were used.

[8] = biological target: T7, CCR9 (Homo sapiens, UniProt P51686); experiment: CCR9-dependent MOLT-4 migration to CCL25; assay type: cell-based; settings: MOLT4 human T-cell line; 250 nM TECK
T7 construct: endogenous in cells; host or cells: MOLT-4 (human T-cell line)
T7 sequence (P51686 1-369): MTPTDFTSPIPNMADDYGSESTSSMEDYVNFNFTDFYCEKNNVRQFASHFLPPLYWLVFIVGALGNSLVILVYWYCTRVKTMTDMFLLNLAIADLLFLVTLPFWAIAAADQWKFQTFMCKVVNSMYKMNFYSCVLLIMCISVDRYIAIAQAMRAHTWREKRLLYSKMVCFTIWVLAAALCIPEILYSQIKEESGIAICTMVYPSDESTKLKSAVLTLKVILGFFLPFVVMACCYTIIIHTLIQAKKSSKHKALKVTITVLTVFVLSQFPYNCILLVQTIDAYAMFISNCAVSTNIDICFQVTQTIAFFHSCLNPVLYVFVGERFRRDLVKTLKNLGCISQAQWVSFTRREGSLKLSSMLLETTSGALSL
Protocol: MOLT4 cell ctx (human T-cell line) and 250 nM TECK were used.

[9] = system: leukocyte infiltration of CNS in EAE; experiment: Leukocyte infiltration of CNS in EAE; assay type: in vivo, mouse; settings: EAE mice
[10] = system: experimental autoimmune encephalomyelitis (EAE); experiment: Clinical EAE in vivo (MOG 35-55 induced); settings: mouse; for Onset of EAE / Animals that developed EAE (disease incidence): subcutaneous; for Onset of EAE: 10% captisol
[11] = biological target: T8, FPR (Mus musculus, UniProt P33766); experiment: FPR-dependent mouse BM neutrophil chemotaxis to fMLP; assay type: cell-based; settings: 100 nM fMLP
T8 construct: endogenous in cells; host or cells: mouse bone-marrow neutrophils
T8 sequence (P33766 1-364): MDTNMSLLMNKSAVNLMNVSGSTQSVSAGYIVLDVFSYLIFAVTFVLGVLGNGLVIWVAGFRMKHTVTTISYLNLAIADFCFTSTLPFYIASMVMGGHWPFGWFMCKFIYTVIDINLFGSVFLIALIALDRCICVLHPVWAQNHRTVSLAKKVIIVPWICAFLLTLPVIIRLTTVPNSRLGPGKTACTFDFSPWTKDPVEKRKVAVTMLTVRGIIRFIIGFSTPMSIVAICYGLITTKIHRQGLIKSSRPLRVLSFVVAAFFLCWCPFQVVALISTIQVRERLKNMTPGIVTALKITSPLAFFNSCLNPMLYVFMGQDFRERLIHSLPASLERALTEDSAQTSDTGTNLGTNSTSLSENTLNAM
Protocol: Neutrophil ctx and 100 nM fMLP were used.

[12] = system: huCMKLR1/βARR CHO, huCMKLR1/L1.2 cell lines and splenocytes; experiment: In vitro cytotoxicity, annexin V FITC / propidium iodide assay; assay type: cell-based; settings: 90 minute incubation at 37° C., huCMKLR1/L1.2, splenocytes
Protocol: The in vitro cytotoxicity of aNETA can be determined with an annexin V FITC assay kit. […] The analysis can be performed with a FITC-conjugated annexin-V, which has a strong affinity for extracellular phosphatidylserines, and the fluorescent intercalating agent propidium iodide (PI).
With reference to FIG. 11, cell lines (huCMKLR1/βARR CHO and huCMKLR1/L1.2) and splenocytes were used. aNETA was tested with 90 minute incubation at 37° C.

T4 sequence (P70658 whole entry): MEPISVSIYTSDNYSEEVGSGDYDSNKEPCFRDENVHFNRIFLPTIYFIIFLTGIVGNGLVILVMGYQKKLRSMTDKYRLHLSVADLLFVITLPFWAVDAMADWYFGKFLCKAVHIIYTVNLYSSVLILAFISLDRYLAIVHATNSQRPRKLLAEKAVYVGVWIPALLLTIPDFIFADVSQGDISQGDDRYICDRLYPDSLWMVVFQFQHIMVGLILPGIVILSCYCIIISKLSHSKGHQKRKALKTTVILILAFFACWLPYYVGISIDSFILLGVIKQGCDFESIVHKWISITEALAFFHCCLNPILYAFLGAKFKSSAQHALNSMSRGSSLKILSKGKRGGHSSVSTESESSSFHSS
T2 sequence (P61073 whole entry): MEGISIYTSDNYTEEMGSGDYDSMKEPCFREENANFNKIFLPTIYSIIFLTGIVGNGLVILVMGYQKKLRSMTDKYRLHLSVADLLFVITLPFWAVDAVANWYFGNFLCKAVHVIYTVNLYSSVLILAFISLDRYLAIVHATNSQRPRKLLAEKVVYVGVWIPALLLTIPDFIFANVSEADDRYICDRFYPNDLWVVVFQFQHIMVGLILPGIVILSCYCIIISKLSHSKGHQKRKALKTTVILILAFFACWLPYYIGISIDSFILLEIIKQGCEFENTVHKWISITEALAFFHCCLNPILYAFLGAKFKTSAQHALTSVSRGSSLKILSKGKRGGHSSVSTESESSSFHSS

Q: Which results are given for C[N+](C)(C)CCC(=O)c1cccc2ccccc12.[I-] [aNETA, 2-(alpha-naphthoyl)ethyltrimethyl ammonium iodide]?
A: IC50 ([1]; 0.5% BSA): 1.2 µM; IC50 ([1]; 100% human serum): 1.3 µM; IC50 ([1]; buffer (10% FBS)): 1.2 µM; IC50 ([2]; 100% human serum, huCMKLR1/βARR CHO cells, 7 nM chemerin, read-out: IC50, inhibition of chemerin-triggered huCMKLR1 association with βARR): 0.62 µM; IC50 ([2]; buffer (10% FBS), huCMKLR1/βARR CHO cells, 7 nM chemerin, read-out: IC50, inhibition of chemerin-triggered huCMKLR1 association with βARR): 0.35 µM; IC50 ([2]; in vitro cell-based bioassay, read-out: IC50, inhibition of chemerin mediated beta-arrestin2 association with CMKLR1): ~0.35 µM; Inhibition of CXCR4-dependent MOLT-4 migration to CXCL12 [3]: does not inhibit; IC50 ([4]; 0.5% BSA): 9.6 µM; IC50 ([4]; 100% human serum): 1.2 µM; IC50 ([4]; buffer (10% FBS)): 1.1 µM; Inhibition of CXCR4-dependent mouse splenocyte migration to CXCL12 [5]: does not inhibit; Inhibition of C5aR-dependent mouse BM neutrophil chemotaxis to C5a [6]: does not inhibit; Inhibition of CCR7-dependent mouse splenocyte migration to CCL19 [7]: does not inhibit; Inhibition of CCR9-dependent MOLT-4 migration to CCL25 [8]: does not inhibit; Leukocyte infiltration of the CNS compared to vehicle ([9]; daily 10 mg/kg): fewer leukocytes present; Leukocytes in the spleen compared to vehicle ([9]; daily 10 mg/kg and 3 mg/mg): more leukocytes present; Onset of EAE ([10]; 1 mg/kg daily): 17.8 days post-immunization; Animals that developed EAE (disease incidence) ([10]; 3 mg/kg daily, 3/16): 19%; Onset of EAE ([10]; 10 mg/kg daily): 26 days post-immunization; Animals that developed EAE (disease incidence) ([10]; 10 mg/kg daily, 1/16): 7%; Effect on onset of EAE ([10]; 10 mg/kg s.c. daily for 8 days, then every other day): significantly delayed; Inhibition of FPR-dependent mouse BM neutrophil chemotaxis to fMLP [11]: does not inhibit; In vitro cytotoxicity (annexin V / PI) [12]: does not appear to be acutely toxic
